Data set [1] concerns AR. Conditions: AR reference compounds; ref Kleinstreuer 2016; cited from earlier work.
The next data set concerns the target AR (full receptor) (Homo sapiens, UniProt P10275). Description: qHTS AR-luciferase. The note with it: for AR-luc Primary Assay EC50 / AR-luc Primary Assay Efficacy: primary qHTS; for AR-luc Primary Assay EC50: Inactive = efficacy below 30% of R1881's activity; for AR-luc Primary Assay Efficacy / AR-luc Efficacy: relative to maximal efficacy of R1881; for AR-luc Efficacy / EC50: Table 3, mean ± SD, n=3; for EC50: read-out: AR-luc EC50. The data set is classed as cell-based. In general terms: qHTS replaces the single test concentration by a dilution series.

Data set [2] addresses T1, rat AR ligand-binding domain (LBD) fused to the DNA-binding domain of GAL4 (Rattus norvegicus, UniProt P15207).
T1 sequence (P15207 651-882 limits assumed): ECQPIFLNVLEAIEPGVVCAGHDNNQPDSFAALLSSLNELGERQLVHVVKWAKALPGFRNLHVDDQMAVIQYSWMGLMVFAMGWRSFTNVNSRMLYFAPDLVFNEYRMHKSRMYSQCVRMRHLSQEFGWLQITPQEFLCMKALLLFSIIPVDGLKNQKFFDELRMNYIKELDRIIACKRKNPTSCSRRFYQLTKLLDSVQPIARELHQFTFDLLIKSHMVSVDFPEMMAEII
Description: qHTS AR β-lactamase. The format is cell-based. Conditions: for AR-bla Primary Assay EC50: Inactive = efficacy below 30% of R1881's activity.

The target of a further data set is T2, AR-LBD (Rattus norvegicus, UniProt P15207).
T2 sequence (P15207 651-882 limits assumed): T1 sequence (P15207 651-882 limits assumed)
Description: Fluorescence polarization AR competition binding assay.

Data set [3] has as its system AR. The note with it: ref Tamaya et al. 1986; cited from earlier work.
The subject of another data set is rabbit. The note with it: rabbit development study; ref Morinaga et al. 1996b; cited from earlier work.
The target of a further data set is estrogen receptor (Homo sapiens, UniProt P03372). Briefly: Analogous estrogen receptor screens. The format is cell-based. The note with it: data not shown.

Results on 30 molecules are retold here after article PMC6135100 (Toxicology, 2017).

Where two headings read alike, the source gives them in different places.

Chain of AR (full receptor) (P10275 whole entry): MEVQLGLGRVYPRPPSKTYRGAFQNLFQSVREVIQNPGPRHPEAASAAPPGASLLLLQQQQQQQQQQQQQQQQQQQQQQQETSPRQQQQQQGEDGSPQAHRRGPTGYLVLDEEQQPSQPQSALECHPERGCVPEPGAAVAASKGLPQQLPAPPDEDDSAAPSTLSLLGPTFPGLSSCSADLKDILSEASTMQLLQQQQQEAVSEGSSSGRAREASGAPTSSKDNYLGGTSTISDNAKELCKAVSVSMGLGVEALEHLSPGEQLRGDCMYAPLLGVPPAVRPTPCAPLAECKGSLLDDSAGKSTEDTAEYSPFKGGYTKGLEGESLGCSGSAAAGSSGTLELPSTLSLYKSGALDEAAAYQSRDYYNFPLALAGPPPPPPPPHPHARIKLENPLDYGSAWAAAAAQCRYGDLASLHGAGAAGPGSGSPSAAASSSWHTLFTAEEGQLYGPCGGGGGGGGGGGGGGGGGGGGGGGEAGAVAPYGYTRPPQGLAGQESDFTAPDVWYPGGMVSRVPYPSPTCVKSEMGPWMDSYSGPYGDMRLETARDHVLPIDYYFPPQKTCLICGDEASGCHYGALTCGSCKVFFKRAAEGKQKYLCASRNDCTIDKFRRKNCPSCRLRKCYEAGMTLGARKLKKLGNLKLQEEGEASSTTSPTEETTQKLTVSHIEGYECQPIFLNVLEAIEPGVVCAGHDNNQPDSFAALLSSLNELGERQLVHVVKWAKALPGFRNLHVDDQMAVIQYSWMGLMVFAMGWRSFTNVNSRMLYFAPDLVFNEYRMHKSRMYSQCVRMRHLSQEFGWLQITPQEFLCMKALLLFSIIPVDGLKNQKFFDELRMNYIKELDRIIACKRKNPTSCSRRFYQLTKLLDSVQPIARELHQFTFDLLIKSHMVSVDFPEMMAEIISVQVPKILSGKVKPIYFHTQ
Chain of estrogen receptor (P03372 whole entry): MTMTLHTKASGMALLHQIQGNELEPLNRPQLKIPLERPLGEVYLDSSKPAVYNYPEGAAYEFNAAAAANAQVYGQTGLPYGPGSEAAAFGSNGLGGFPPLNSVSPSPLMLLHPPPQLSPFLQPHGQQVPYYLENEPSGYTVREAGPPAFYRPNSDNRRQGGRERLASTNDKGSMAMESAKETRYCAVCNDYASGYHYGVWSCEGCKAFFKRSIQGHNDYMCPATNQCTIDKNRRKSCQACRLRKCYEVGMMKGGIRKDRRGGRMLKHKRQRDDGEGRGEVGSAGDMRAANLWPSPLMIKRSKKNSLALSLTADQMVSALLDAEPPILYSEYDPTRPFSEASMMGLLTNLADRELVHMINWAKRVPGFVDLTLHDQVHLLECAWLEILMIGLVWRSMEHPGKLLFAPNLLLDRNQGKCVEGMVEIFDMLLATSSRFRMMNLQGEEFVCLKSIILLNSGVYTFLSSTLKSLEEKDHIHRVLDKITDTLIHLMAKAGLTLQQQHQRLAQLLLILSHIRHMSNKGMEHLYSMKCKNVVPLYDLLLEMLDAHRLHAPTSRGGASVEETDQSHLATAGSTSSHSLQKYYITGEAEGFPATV

As for `CC(=O)O[C@]1(C(C)=O)CC[C@H]2[C@@H]3C[C@H](C)C4=CC(=O)CC[C@]4(C)[C@H]3CC[C@@]21C` [Medroxyprogesterone acetate], the “Known AR Activity” value in the data set on AR [1] was “Agonist”. On to `C#C[C@]1(O)CC[C@H]2[C@@H]3CCC4=C(CCC(=O)C4)[C@H]3CC[C@@]21C` [Norethynodrel], for which the “Known AR Activity” value in the data set on AR [1] is listed as “Agonist”. Regarding `Oc1ccc(/C=C/c2cc(O)cc(O)c2)cc1` [Resveratrol], the “Known AR Activity” value in the data set on AR [1] was “Inactive”. The “AR-luc Primary Assay EC50” value on AR (full receptor) is listed as “Inactive^b”. In addition, the “AR-bla Primary Assay EC50” value in data set [2] (primary qHTS) is “Inactive^b”. `C[C@]12CCC(=O)C[C@@H]1CC[C@@H]1[C@@H]2CC[C@]2(C)[C@@H](O)CC[C@@H]12` [5α-Dihydrotestosterone]: the “Known AR Activity” value with AR [1] was “Agonist”. Turning to `C[C@]1(O)CC[C@H]2[C@@H]3CCC4=CC(=O)CCC4=C3C=C[C@@]21C` [Methyltrienolone (R1881), Methyltrienolone], in the data set with AR [1], the “Known AR Activity” value is listed as “Agonist”. Also, the “AR-bla Primary Assay Efficacy” value in data set [2] is 0.00131 [131] %. `C#C[C@]1(OC(C)=O)CC[C@H]2[C@@H]3CCC4=CC(=O)CC[C@@H]4[C@H]3CC[C@@]21C` [Norethindrone acetate]: the “Known AR Activity” value in the data set with AR [1] is listed as “Agonist”. For the molecule `C[C@]12CC[C@H]3[C@@H](CCC4=CC(=O)CC[C@@]43C)[C@@H]1CC[C@@H]2O` [Testosterone], the “Known AR Activity” value in the data set on AR [1] is “Agonist”.

Turning to `C[C@]12C=CC3=C4CCC(=O)C=C4CCC3C1CC[C@@H]2O` (stereo partly shown) [Trenbolone], the “Known AR Activity” value in the data set with AR [1] is reported as “Agonist”. Also, the “AR-luc Primary Assay Efficacy” value on AR (full receptor) is on record as 122%. Also, the “AR-bla Primary Assay Efficacy” value in data set [2] (primary qHTS, relative to maximal efficacy of R1881) was 105%. Consider `COC(=O)Nc1nc2ccccc2[nH]1` [Carbendazim], for which the “Known AR Activity” value with AR [1] is given as “Inactive”. On AR (full receptor), the “AR-luc Primary Assay EC50” value was “Inactive^b”. Further, the “AR-bla Primary Assay EC50” value in data set [2] (primary qHTS) is recorded as “Inactive^b”. For `CCNc1nc(Cl)nc(NC(C)C)n1` [Atrazine], the “Known AR Activity” value in the data set with AR [1] is on record as “Inactive”.

Regarding `CCCN(CCOc1c(Cl)cc(Cl)cc1Cl)C(=O)n1ccnc1` [Prochloraz], the “Known AR Activity” value in the data set on AR [1] is “Inactive”. In the case of `CN1C(=O)CN=C(c2ccccc2)c2cc([N+](=O)[O-])ccc21` [Nimetazepam, nimetazepam], on AR (full receptor), the “AR-luc Primary Assay Efficacy” value was found to be 470%. Turning to `OC(c1ccc(Cl)cc1)(c1cncnc1)c1ccccc1Cl` (stereo not shown) [Fenarimol], the “Known AR Activity” value in the data set with AR [1] is reported as “Inactive”. Regarding `C[C@]12CC[C@H]3[C@@H](CCC4=CC(=O)CC[C@@H]43)[C@@H]1CC[C@@H]2O` [Nandrolone], the “Known AR Activity” value with AR [1] is “Agonist”. One may read the EC50 as the concentration giving half of the maximal effect. What is called IC50 is the concentration that inhibits the measured activity by half. As to `C=C1C[C@H]2[C@@H]3C=C(C)C4=CC(=O)CC[C@]4(C)[C@H]3CC[C@]2(C)[C@@]1(OC(C)=O)C(C)=O` [Melengestrol acetate], on AR (full receptor), the “AR-luc Efficacy” value was 288.12 ± 44.83% and the EC50 stood at 0.017 ± 0.012 µM. In addition, the IC50 on AR-LBD stood at 1.17 ± 0.2 µM. The “FP Binding Efficacy” value on AR-LBD (mean ± SD, n=3, printed as negative values) is recorded as −124.24 ± 3.58%. Take `C#C[C@]1(O)CC[C@H]2[C@@H]3CCC4=CC(=O)CC[C@@H]4[C@H]3CC[C@@]21CC` [Levonorgestrel]: the “Known AR Activity” value in the data set on AR [1] is “Agonist”.

On to `C[C@]12CCC(=O)C=C1CC[C@@H]1[C@@H]2CC[C@@]2(C)[C@H]1CC[C@]2(C)O` [Methyltestosterone], for which the “Known AR Activity” value in the data set on AR [1] was “Agonist”. On to `CC(=O)O[C@]1(C(C)=O)CC[C@H]2[C@@H]3C=C(Cl)C4=CC(=O)[C@@H]5C[C@@H]5[C@]4(C)[C@H]3CC[C@@]21C` [Cyproterone acetate], for which the “Known AR Activity” value in the data set on AR [1] is given as “Weak Agonist”. For the molecule `CC(C)C(=O)Nc1ccc([N+](=O)[O-])c(C(F)(F)F)c1` [Flutamide], the “Known AR Activity” value in the data set with AR [1] is “Inactive”. For `CC1(C)[C@@H](O[C@H]2O[C@H](C(=O)O)[C@@H](O)[C@H](O)[C@H]2O[C@@H]2O[C@H](C(=O)O)[C@@H](O)[C@H](O)[C@H]2O)CC[C@]2(C)[C@H]3C(=O)C=C4[C@@H]5C[C@@](C)(C(=O)O)CC[C@]5(C)CC[C@@]4(C)[C@]3(C)CC[C@@H]12` [Glycyrrhizin], the “binding to AR, previously identified” value in the data set on AR [3] is listed as “weak binder of AR”.

In the case of `Cc1oc(=O)oc1CN1CCN(c2cc3c(cc2F)c(=O)c(C(=O)O)c2n3C(C)S2)CC1` (stereo not shown) [Prulifloxacin], in the data set on rabbit, the NOAEL for pregnancy is 30 mg/kg and the “general toxicity NOAEL” value is 10 mg/kg. Besides, the “activity in estrogen receptor screens” value on estrogen receptor is given as “active”. For `CC1(C)NC(=O)N(c2ccc([N+](=O)[O-])c(C(F)(F)F)c2)C1=O` [Nilutamide], the “Known AR Activity” value with AR [1] is “Inactive”. Regarding `CC(C)NC(=O)N1CC(=O)N(c2cc(Cl)cc(Cl)c2)C1=O` [Iprodione], the “Known AR Activity” value with AR [1] is recorded as “Inactive”. As for `C#C[C@]1(O)CC[C@H]2[C@@H]3CCC4=CC(=O)CC[C@@H]4[C@H]3CC[C@@]21C` [Norethindrone], the “Known AR Activity” value in the data set on AR [1] is “Agonist”. Turning to `CC1(C)[C@H](C(=O)O[C@H](C#N)c2cccc(Oc3ccccc3)c2)[C@@H]1C=C(Br)Br` [Deltamethrin], the “Known AR Activity” value in the data set on AR [1] is “Inactive”. For the same molecule, the “AR-luc Primary Assay EC50” value at AR (full receptor) is on record as “Inactive^b”. Moreover, in data set [2] (primary qHTS), the “AR-bla Primary Assay EC50” value is “Inactive^b”.

As to `CC/C(=C(\c1ccccc1)c1ccc(OCCN(C)C)cc1)c1ccccc1` [Tamoxifen], the “Known AR Activity” value in the data set with AR [1] is recorded as “Inactive”. Regarding `Clc1ccc(C(c2ccc(Cl)cc2)C(Cl)(Cl)Cl)cc1` [p,p’-DDT], in the data set on AR [1], the “Known AR Activity” value is “Inactive”.

Consider `C[C@]12CCC(=O)C=C1CC[C@@H]1[C@@H]2CC[C@]2(C)C(=O)CC[C@@H]12` [4-Androstenedione], for which the “Known AR Activity” value in the data set on AR [1] is reported as “Agonist”. As to `C[C@]1(O)CC[C@H]2[C@@H]3CCC4=CC(=O)CC[C@]4(C)[C@@]3(F)[C@@H](O)C[C@@]21C` [Fluoxymestrone], the “Known AR Activity” value in the data set on AR [1] is given as “Agonist”. With `C[C@]12CC[C@H]3C(=CCc4cc(O)ccc43)[C@@H]1CCC2=O` [Equilin], at AR (full receptor), the “AR-luc Efficacy” value turned out to be 89.27 ± 18.86% and the EC50 worked out at 6.31 ± 2.03 µM. For the same molecule, on AR-LBD, the “FP Binding Efficacy” value is listed as −89.77 ± 13.22% and the IC50 was found to be 21 ± 3.41 µM. This molecule also had an EC50 in data set [2] of 19.5 µM. The “AR-bla Efficacy” value in data set [2] (Table 3, mean ± SD, n=3, relative to maximal efficacy of R1881) turned out to be 31.53 ± 3.88%.
